Target: T1, E-selectin (Homo sapiens, UniProt P16581)
T1 sequence (P16581 whole entry): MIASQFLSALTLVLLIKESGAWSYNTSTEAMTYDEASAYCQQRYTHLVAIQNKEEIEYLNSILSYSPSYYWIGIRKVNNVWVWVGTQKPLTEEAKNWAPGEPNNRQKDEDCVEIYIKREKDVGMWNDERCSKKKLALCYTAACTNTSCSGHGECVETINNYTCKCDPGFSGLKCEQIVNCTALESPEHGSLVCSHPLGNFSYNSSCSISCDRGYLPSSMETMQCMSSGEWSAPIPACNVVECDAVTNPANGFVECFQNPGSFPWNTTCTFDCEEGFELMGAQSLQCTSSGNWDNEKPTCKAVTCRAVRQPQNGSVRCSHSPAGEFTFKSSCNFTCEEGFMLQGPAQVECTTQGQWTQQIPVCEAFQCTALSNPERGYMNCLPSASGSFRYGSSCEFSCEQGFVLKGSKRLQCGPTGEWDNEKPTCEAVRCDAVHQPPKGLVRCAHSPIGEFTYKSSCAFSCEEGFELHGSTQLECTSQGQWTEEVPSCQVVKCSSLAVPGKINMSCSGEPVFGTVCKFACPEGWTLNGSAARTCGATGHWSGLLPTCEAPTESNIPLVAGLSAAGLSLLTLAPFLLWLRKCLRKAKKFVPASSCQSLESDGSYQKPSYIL
Assay: Compound was evaluated for the Selectin E binding activity.

IC50: > 10 µM
Compound: CC(=O)N[C@H]1[C@H]([C@H](O)[C@H](O)CO)O[C@@](O[C@H]2[C@@H](O)[C@@H](CO)O[C@@H](O[C@@H]([C@H](O[C@@H]3O[C@@H](C)[C@@H](O)[C@@H](O)[C@@H]3O)[C@H](C=O)NC(C)=O)[C@H](O)CO)[C@@H]2O)(C(=O)O)C[C@@H]1O [SIALYL LEWIS X]

Reference: ChEMBL document CHEMBL1130612, “Exploration of beta-turn scaffolding motifs as components of sialyl Le(X) mimetics and their relevance to P-selectin” (Bioorg Med Chem Lett, 1998)
